Entries after “also recorded” stand apart in the source; their conditions may differ.
Key:
[1] = tested on: Arabidopsis thaliana (var. Columbia); assay: Arabidopsis seed-germination and seedlings establishment on MS medium with Phe-analogues; assay type: in vivo; settings: for appearance of treated seedlings (cotyledons, leaves): seedlings on MS medium with analogue; for effect on seed-germination: seeds sown on MS medium with 0-80 μM analogue
Source text: FIGS. 2A-D are images depicting the effects of m-Tyr and several other phenylalanine (Phe)-analogs, modified in the meta position of the R-group, on Arabidopsis thaliana (var. Columbia) seed-germination and seedlings establishment. FIG. 2A—m-Tyr; FIG. 2B—Phe-analog “CH3”; FIG. 2C—Phe-analog “F”; FIG. 2D—Phe-analog “CF3”.
The germination of Arabidopsis thaliana plants is inhibited by the Phe-analogues of some embodiments of the invention—The efficiency of the developed compounds modified at the ‘meta’ position of the phenyl ring (FIG. 1) were analysed on Arabidopsis thaliana (var. Columbia). Following […] for 5 days at 4° C., Arabidopsis seeds were sown on Murashige-Skoog medium (MS) supplemented with increased concentrations (0-80 μM) of different Phe-analogues (in which “Y” was either “CH3”, “F” or “CF3”; see, FIG. 1). […] It should be noted that many more phe-analogues can be easily synthesized chemically based on the present teachings.

Synechocystis PCC 6803 = assay: Growth inhibition / bleaching of cyanobacteria culture (absorbance OD=730, colonies on agar); assay type: cell-based; settings: for effect on growth / killing of the cyanobacteria: water samples, OD=730
Procedure: FIGS. 3A-B depict the inhibition of cyanobacteria by the phenylalanine analogue of some embodiments of the invention (“F”). FIG. 3A—a graph depicting the inhibition of growth of cyanobacteria Synechocystis PCC 6803 by increasing concentrations of the phenylalanine analogue of some embodiments of the invention. FIG. 3B—raw data of the results shown in FIG. 3A as detected after 150 hours.
(§1) FIGS. 5A-E depict the effect of m-Tyr on killing cyanobacteria Microcystis aeruginosa (FIGS. 5A-B) and Synechocystis PCC 6803 (FIGS. 5C-E) from water samples. FIG. 5A is a graph depicting the effects of m-Tyr on lake Kinneret samples containing the highly toxic cyanobacteria, Microcystis aeruginosa. The tests were performed with samples collected from lake Kinneret, that are contaminated by its native toxic cyanobacteria Microcystis aeruginosa, in the absence (0) or presence of various m-Tyr concentrations (1-20 μM) as indicated. […] The growth rate was determined by the culture absorbance at OD=730. FIG. 5B—raw data of the water samples used in the experiment shown in FIG. 5A, in the presence of the indicated concentrations of m-Tyr. FIG. 5C—a graph depicting the effects of m-Tyr on the cyanobacteria, Synechocystis PCC 6803. The tests were performed with samples of Synechocystis PCC 6803, in the absence (0) or presence of various m-Tyr concentrations (1-1000 μM) as indicated. […] The growth rate was determined by the culture absorbance at OD=730. FIG. 5D—raw data of the water samples used in the experiment shown in FIG. 5C, in the presence of the indicated concentrations of m-Tyr. FIG. 5E—The cell mortality of the cyanobacteria Synechocystis PCC 6803 was evaluated by the numbers of colonies appearing on Agar plates.

[2] = assay type: physicochemical
Source text: Although m-Tyr is an efficient allelopathic agent, its direct application for agriculture use is limited due to its instability in soil and aqueous environment [Movellan, J. et al. Synthesis and evaluation as biodegradable herbicides of halogenated analogs of L-meta-tyrosine. Environ. Sci. Pollut. Res. 21, 4861-4870 (2014)].

A. thaliana [3] = assay: Combined treatment of Phe-analogues and glyphosate, A. thaliana root growth / seed-germination; assay type: in vivo, Arabidopsis thaliana
Procedure: FIG. 9 is an image depicting the effects of Phe-analogs, glyphosate and combination thereof on Arabidopsis thaliana (var. Columbia) seed-germination and seedlings establishment. “ZYX1”=m-Tyr (3′ OH phenylalanine); “ZYX2”=3′ fluoro phenylalanine; “RoundUp”=Glyphosate; “uM”=μicromolar.
For example, when inhibition of weed growth (e.g., A. thaliana) is achieved using an amount of 100 μM of glyphosate (based on TAIR database) when used in the absence of the effective amount of the compound depicted by Formula A, I or II, the concentration of glyphosate required for achieving the same growth inhibition of the weed in the presence of the effective amount of the compound depicted by Formula A, I or II is 10 μM of glyphosate, i.e., a reduction of about 90% in the concentration of glyphosate (e.g., using the ZYX1 compound as shown in FIG. 9).
Compared to herbicides (e.g., glyphosate) applied alone, the performance of herbicide mixtures can be either synergistic, or additive. Additivity is the combined action, which is equal to the total response predicted by taking into account the response of each herbicide applied alone. Synergism is the combined action of two herbicides where the observed response to their joint application is greater than the response predicted by Colby method [S. R. COLBY. Calculating Synergistic and Antagonistic Responses of Herbicide Combinations. […]

[4] = tested on: glyphosate resistant Lolium rigidum Gaudin; assay: Combined treatment on glyphosate resistant weed, seed-germination and seedlings establishment; assay type: in vivo
Source text: FIG. 10 is an image depicting the effects of Phe-analogs, on glyphosate resistant Lolium rigidum Gaudin (weed) seed-germination and seedlings establishment. ZYX1=m-Tyr; “RoundUp”=Glyphosate; “uM”=μicromolar.
In recent years, Lolium rigidum Gaudin (annual ryegrass) resistance to a number of herbicides has started to spread worldwide.

A. thaliana [5] = settings: absence of Formula A, I or II compound; based on TAIR database; cited from earlier work
Microcystis aeruginosa = assay: Lake Kinneret water samples containing toxic cyanobacteria, bleaching and growth (OD=730); assay type: cell-based
Procedure: as §1, with “aeruginosa.” for “aeruginosa. The tests were performed with samples collected from lake Kinneret, that are contaminated by its native toxic cyanobacteria Microcystis aeruginosa, in the absence (0) or presence of various m-Tyr concentrations (1-20 μM) as indicated.”

E. coli = assay: Antibacterial assay, bacterial growth by optical density (OD=600 nm); assay type: cell-based, Escherichia coli; settings: 0-1000 μM
Procedure: (§2) FIGS. 6A-B depict the effects of m-Tyr on the growth rates of model gram-positive and gram-negative bacteria. Bacterial growth was determined using optical density data (OD=600 nm) of E. coli and B. subtilis cultures at different time points and at different m-Tyr concentrations (0-1000 μM, the color index for m-Tyr concentration used is in the right side of each panel). FIG. 6A—E. coli; FIG. 6B—Bacillus subtilis; Note that cell growth of E. coli and Bacillus subtilis was not affected by m-Tyr, even when used at high concentrations of 1000 micromolar.

Bacillus subtilis = assay: as above; assay type: cell-based; settings: 0-1000 μM
Procedure: as §2

yeast = assay: Sensitivity of yeast cultures; assay type: cell-based; settings: even at concentrations as high as 15 mM; data not shown
algae (chlamydomonas) = assay: Inhibition of algae; assay type: cell-based; settings: even in the millimolar range
algae (Chlorella) = assay: Effect on algae; assay type: cell-based
Source text: (§3) Thus, m-Tyr and its related Phe-analogues represent the first selective agents against cyanoblooming, a serious threat to both marine ecology and global economy.

marine bacteria = assay: Effect on marine bacteria; assay type: cell-based
Source text: as §3

cyanobacteria = assay: Viability experiments / toxicity to cyanobacteria; assay type: cell-based
Source text: as §3

[6] = tested on: Arabidopsis thaliana (var. Columbia); settings: Bertin et al. 2007; cited from earlier work
[7] = Movellan et al. 2014; cited from earlier work

N[C@@H](Cc1cccc(F)c1)C(=O)O [F, 3′ fluoro phenylalanine]
appearance of treated seedlings (cotyledons, leaves) [1]: white cotyledons and yellowish leaves | effect on seed-germination [1]: strongly affected | low concentration at which inhibition of growth rate is evident (Synechocystis PCC 6803; culture absorbance at OD=730): 6.25 µM | bleaching of the cyanobacteria culture (Synechocystis PCC 6803; increasing concentrations, 0 to 50 μM, FIG. 3B after 150 hours): bleaching of the culture | effect on growth / killing of the cyanobacteria (Synechocystis PCC 6803): effective; also recorded: very strong effect | stability compared with the meta tyrosine molecule [2]: more stable

O=C(O)CNCP(=O)(O)O [glyphosate]
concentration of glyphosate required for the same growth inhibition in combination (A. thaliana [3]; in the presence of the effective amount of the compound (ZYX1, FIG. 9)): 10 µM | response of glyphosate resistant Lolium, applied separately ([4]; FIG. 10): resistance | elevated glyphosate concentration to which the Lolium variety is resistant ([4]; local Israeli variety of Lolium): 60 folds of the recommended concentration | amount of glyphosate achieving inhibition of weed growth, used alone (A. thaliana [5]): 100 µM

N[C@@H](Cc1cccc(O)c1)C(=O)O [m-Tyr, 3-hydroxyphenylalanine]
appearance of treated seedlings (cotyledons, leaves) [1]: white cotyledons and yellowish leaves | chloroplast morphology, microscopic analysis ([1]; seedlings treated with 10 μM, data not shown): altered chloroplast morphologies and less grana lamella | effect on seed-germination [1]: strongly affected | effect on growth / killing of the cyanobacteria (Synechocystis PCC 6803; listed as meta tyrosine): effective | effect on growth / killing of the cyanobacteria (Microcystis aeruginosa; OD=730): very strong effect | effect on growth / killing of the cyanobacteria (Microcystis aeruginosa; OD=730, listed as meta tyrosine): effective | bleaching of the cyanobacteria culture (Microcystis aeruginosa; increasing concentrations (printed 0 mM to 10 mM)): bleaching of the culture | effect on cell growth (E. coli): did not affect cell growth; also recorded: no (or very little) effect; also recorded: not affected | effect on cell growth (Bacillus subtilis): did not affect cell growth; also recorded: no (or very little) effect; also recorded: not affected | sensitivity of yeast cultures (yeast): not sensitive | inhibition of algae (algae (chlamydomonas)): no inhibition effects | effect on algae (algae (Chlorella)): no obvious effects | effect on marine bacteria (marine bacteria): no obvious effects | reduction in the concentration of glyphosate (A. thaliana [3]; combination of ZYX1 with glyphosate, FIG. 9): about 90% | effect on / toxicity to cyanobacteria (cyanobacteria; very low μM range): highly susceptible; also recorded: strongly affecting; also recorded: toxic | concentration as low as which addition to the growth media induces cell death (cyanobacteria; viability experiments): 0.5 µM | phytotoxic activity (inhibition of germination of angiosperms, root growth) [6]: promising phytotoxic activity | stability in soil and aqueous environment [7]: instability
